This note sets out measurements from paper PMC8795149, “Characterization of a novel non-steroidal glucocorticoid receptor agonist optimized for topical treatment” (Scientific Reports, 2022).

Series [1] can be described thus: Compound concentration in dermis, human skin explants. It counts as in vitro ADME. Particulars: 24 h, propylene carbonate. As for the experimental part: NativeSkin models (NS002) were purchased from Genoskin, France. Human skin samples from abdominal reduction surgery were obtained by Genoskin from donors upon written informed consent. Full ethical approval for the study protocol was obtained from the French ethical research committee (Comité de Protection des Personnes), and authorization was given by the French Ministry of Research. The study was conducted according to the Declaration of Helsinki. 8 mm punch biopsies were excised and embedded in a fibrin-based matrix in transwells and a silicone ring was firmly attached to the surface covering the outer edge of the skin biopsy to prevent lateral diffusion of topically applied formulations. […]
The concentrations of the compounds in dermis were determined from skin biopsies from the human skin explants. […] After homogenization, the samples were diluted, centrifuged and precipitated with acetonitrile containing internal standard (IS), and the compounds were thereafter quantified by means of liquid chromatography-tandem mass spectrometry (LC-MS/MS) using an AB Sciex 5500 or 6500 QTRAP. Calibration curves were prepared by spiking the analytes in blank homogenate, and a generic IS were used in quantification. The dermis micro molar concentrations were calculated assuming 1 gram of skin tissue equal to 1 mL.

Series [2] addresses T1, human Mineralocorticoid Receptor (Homo sapiens, UniProt P08235).
T1 construct: host or cells: HEK293 (DSMZ ACC 305)
T1 sequence (P08235 726-964 limits assumed): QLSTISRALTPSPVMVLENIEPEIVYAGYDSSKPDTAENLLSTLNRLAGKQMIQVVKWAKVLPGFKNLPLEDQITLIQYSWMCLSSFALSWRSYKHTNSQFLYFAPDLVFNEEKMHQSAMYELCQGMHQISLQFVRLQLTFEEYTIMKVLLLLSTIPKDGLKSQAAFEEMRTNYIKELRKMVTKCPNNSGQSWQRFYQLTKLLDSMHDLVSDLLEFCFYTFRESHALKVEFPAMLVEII
Kind of series: MR antagonist assay, MR reporter assay. It counts as cell-based. As for the experimental part:
Assays were performed at Indigo Biosciences according to standard protocols. In brief, MR-luciferase reporter cells were incubated with medium containing charcoal-stripped fetal bovine serum and incubated with test and reference compounds for 24 h before measuring luminescence. Data were fitted by the means of four parameter logistic regression.
LEO 134310 and LEO 134988 were tested in the human Mineralocorticoid Receptor in cellular GAL4 reporter gene assays. All assays were done in HEK293 cells (DSMZ ACC 305). The plasmids used in Phenex’ GAL4 assay system are derivatives of Stratagene’s M2H plasmids: the reporter plasmid pFR-Luc (contains a synthetic promoter with five tandem repeats of the yeast GAL4 binding sites that control expression of the Photinus pyralis (American firefly) luciferase gene), and pCMV-BD (for fusions of nuclear receptor ligand binding domains to the DNA-binding domain of the yeast protein GAL4). In order to improve experimental accuracy, a second reporter - Renilla reniformis luciferase, driven by a constitutive promoter - was included as internal control. Using the control reporter (pRL-CMV) allows correcting for variations in experimental handling e.g. transfection efficacy, cell viability, pipetting errors, cell lysis efficiency and assay efficiency. The compounds were tested in 9 concentrations in triplicates.

The nature of series [3]: TPA mouse model, blood concentration after topical dose. It counts as in vivo. The following applies: blood concentrations at 2 h after the last topical dose. As for the experimental part: Treatments were performed by topical application of either vehicle (90% acetone, 10% transcutol), Treatments were applied twice daily on days 8, 9, 10, and once on day 11 (20–10 μL to each side of ear) with at least 5 h between the first and second treatment. TPA challenge on days 8 and 10 was performed at least 1 h after the first treatment. On day 11, animals were sacrificed 2 h after the last dosing. Blood was sampled by cardiac puncture from animals anaesthetized with isoflurane. Thereafter, ear biopsies were taken with a biopsy punch (8 mm diameter), weighed and stored at – 80 °C. Plasma osteocalcin levels were analyzed by EIA (rat-MID, IDS, UK). Effective inhibitory doses (ID50) were determined from a sigmoid I(max) model in Phoenix64, Pharsight, Certara. Therapeutic Index (TI) was calculated either as ID50 for spleen weight reduction or ID50 for blood osteocalcin concentrations, divided by ID50 for ear weight reduction.

Series [4] in a line: In vivo pharmacokinetics in dog, i.v. As for the experimental part:
The pharmacokinetic profile of LEO 134310 was determined in rat (male Sprague Dawley) and dog (female Beagle) after intravenous (i.v.) injection at 1 mg/kg. LEO 134310 was administered in isotonic cyclodextrin solution at 0.5 mg/mL (0.1% Citrate buffer pH 4, 20% hydroxy-propyl-β-cyclodextrin in 0.2% NaCl). The i.v. dose was given as a bolus in rats and as a slow injection over 2 min in dogs. The dosing volume was 2 mL/kg. Blood was immediately diluted after sampling in an inhibitory cocktail containing acetylcholinesterase inhibitor Dichlorvos [1 mg/mL in an 8 mg/mL K2EDTA solution in phosphate buffer (PBS)] and samples were stored at − 80 °C until analysis. Samples were analyzed by LC–MS/MS using an API 5500/API 6500 QTRAP mass spectrometer. Pharmacokinetic parameters were derived from a non-compartment model in Phoenix64 (Pharsight, Certara).

The test system of series [5] is 8 ion channels, 40 kinases, 2 phosphatases, up to 163 G-protein coupled receptors. Briefly: Off-target panels (Eurofins IonChannelProfiler, KinaseProfiler, GPCRProfiler). Particulars: 10 µM.
Series [6] concerns FKBP5 mRNA (GR target engagement). Kind of series: Minipig skin FKBP5 gene expression after 4 weeks topical treatment. It is filed as in vivo. Particulars: minipigs, LEO 134310 2%, CP 0.05%, BMV 0.1%. As for the experimental part:
Each animal was treated for 6 h daily over 28 days with 25 µL of the following topical formulations on an application area of 2.5 cm × 2.5 cm: Vehicle (transcutol:acetone (1:9) with 10% hydroxy-propyl-cellulose); Dermovate cream (CP 0.05%), CP 0.05% in vehicle; Betnovate cream (BMV 0.1%); BMV 0.1% in vehicle; LEO 134310 2% in vehicle. One test field on each animal remained untreated.
RNA was extracted from the biopsies and qPCR was performed using customized TaqMan gene expression assays for FKBP5 and TBP (reference gene).

For `C[C@H](NC(=O)[C@H]1CCCO1)[C@H](Oc1ccc(C(=O)O[C@H]2CCCN(C(=O)[C@H]3COC(=O)C3)C2)cc1)c1ccc(C2CC2)cc1` [LEO 134310], in series [1], the “Higher dose needed to achieve similar dermis concentrations compared to BMV” value was determined as 3 fold and the “Higher dose needed to achieve similar dermis concentrations compared to CP” value is recorded as 7 fold. The “Antagonist activity on MR” value in series [2] is reported as “no antagonist activity on MR”. In series [3], the “Higher dose needed to achieve systemic exposure comparable to BMV” value was 800 fold and the “Higher dose needed to achieve systemic exposure comparable to CP” value worked out at 200 fold. The “In vivo clearance relative to liver blood flow” value in series [4] was 15 fold. Further, in series [4] (i.v. 1 mg/kg), the In vivo clearance is 470 ± 97 (n = 3) mL/min/kg and the “In vivo terminal half-life” value is given as 11 ± 1.2 (n = 3) min. Moreover, in series [5], the “Off-target activity in ion channel, kinase, phosphatase and GPCR panels” value is recorded as “no off-target activity was identified”.
In the case of `CCC(=O)O[C@]1(C(=O)CCl)[C@@H](C)C[C@H]2[C@@H]3CCC4=CC(=O)C=C[C@]4(C)[C@@]3(F)[C@@H](O)C[C@@]21C` [CP, Clobetasol Propionate], the “FKBP5 gene expression induced in skin” value in series [6] is recorded as “higher levels of FKBP5 gene expression”.
